Test results: patent US10570179B2, “Substituted urea depsipeptide analogs as activators of the CLPP endopeptidase” (priority 2016, dated 2020)
≈ marks a conversion by molar mass, not a printed value. Like-named read-outs stand apart in the source and are kept apart here. Numbered stars: 1 amine (or outer) side, 2 acyl side, 3 side chain; on linkers, the order of the positions; unused ones are H or OH. Bridge positions count the residues as written; N and C are the ends. Square brackets hold non-standard residues; d marks the D form. Peptide text beside a SMILES is read from it. * marks the point of attachment. Phe(3-CF3) = N[C@@H](Cc1cccc(C(F)(F)F)c1)C(=O)O; Piperazine(2S-CO,4-Me) = CN1CCN[C@H](C(=O)O)C1; NH(1,3-benzodioxol-5-yl) = c1cc2c(cc1N*)OCO2; Phe(3,5-Me2) = Cc1cc(C)cc(C[C@H](N)C(=O)O)c1; Phe(3-Cl) = N[C@@H](Cc1cccc(Cl)c1)C(=O)O; Morpholine(3S-CO) = O=C(O)[C@@H]1COCCN1; Phe(3-Me) = Cc1cccc(C[C@H](N)C(=O)O)c1; NH(4-Cl-2-F-phenyl) = Fc1cc(Cl)ccc1N*; Pro(4R-Me) = C[C@H]1CN[C@H](C(=O)O)C1; Hyp = O=C(O)[C@@H]1C[C@@H](O)CN1; NH(4-Et-phenyl) = CCc1ccc(N*)cc1; NH(4-Me-phenyl) = Cc1ccc(N*)cc1; aThr = C[C@H](O)[C@H](N)C(=O)O; Pip = O=C(O)[C@@H]1CCCCN1; CO = O=C([*:1])[*:2]

Tests used:
[1] = biological target: T1, S. aureus ClpP (Sa-ClpP) (Staphylococcus aureus, UniProt Q2G036); test: Casein-BODIPY digestion assay (ClpP activation); format: biochemical
T1 construct: made in house; host or cells: E. coli BL21 (DE3)

[2] = test system: S. aureus ΔClpP; test: Minimal inhibitory concentration, microbroth dilution; format: cell-based, Staphylococcus aureus; details: MIC; ClpP inactivated
In short: (§1)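 Compound was diluted twofold in the appropriate broth. Bacterial suspension (approx. 10^5 cfu/mL) was then added in equal volume, giving a maximum test concentration of 200 μM. After aerobic overnight incubation at 37 °C, wells were inspected visually for growth.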

[3] = test system: MRSA NRS70; test: as above; format: cell-based; details: Staphylococcus aureus
In short: as §1

[4] = test system: S. aureus USA 300; test: as above; format: cell-based; details: Staphylococcus aureus
In short: as §1

[5] = Plasma protein binding, rapid equilibrium dialysis; format: in vitro ADME, mouse
Protocol: This assay determines plasma protein binding of a drug/compound and free drug concentration in plasma using rapid equilibrium dialysis, which allow the aqueous component of plasma containing the free drug/compound through a dialysis membrane (MWCO˜8,000).
Solutions were prepared at 10 mM in DMSO. Dulbecco's phosphate buffered saline (DPBS; pH 7.4) was obtained from Invitrogen (Carlsbad, Calif.). Single-Use RED (rapid equilibrium dialysis) device was obtained from Thermo scientific (Rockford, Ill.). Human plasma was obtained from Innovative Research INC (Novi, Michigan, Ill).
Sample preparation for plasma protein binding was modified from Waters' method. (Waters et al. (2008) J. Pharm. Sci. 97(10): 4586-95). The Teflon base plate with the RED inserts (MWCO 8 K) were allowed to use without any pre-condition the membrane inserts. Human plasma was thawed and centrifuged at 1000 rpm for 2 min to remove any particulates. Each compound was prepared at 10 μM in human plasma. This was done by adding 1 μL, of drug solution (10 mM in DMSO) to 1000 μL, of human plasma (0.1% DMSO). Spiked plasma solutions (300 μL) were placed into the sample chamber (indicated by the red ring) and 500 μL, of DPBS into the adjacent chamber. The plate was sealed and incubated at 37° C. on an orbital shaker (100 rpm) for 4 hours. After incubation, the seal was removed from the RED plate and the volume of the insert confirmed—little to no volume change occurred. Aliquots (50 μL) were removed from each side of the insert and dispensed into a 96-well deep plate. An equal volume of blank plasma or DPBS was added to the required wells to create analytically identical sample matrices (matrix matching). To each sample 200 μL, of ACN containing 4 μg/mL warfarin IS was added. All of the plates were sealed and mixed well at 600 rpm for 10 min and were centrifuged at 4000 rpm for 20 min. The supernatants (120 μL) were transferred to analytical plates for analysis by LCMS. Conditions for Waters ACQUITY-UPLC-MS-UV system were described separately. The test compound concentrations were quantified in both buffer and plasma chambers via peak areas relative to the internal standard. The percentage of the test compound bound to plasma was calculated on following equations: % Free=(Concentration buffer chamber/concentration plasma chamber)×100% and % Bound=100%-% Free.

[6] = MIC, read-out: Minimal Inhibitory Concentrations (μM) MRSA NRS70
[7] = USA300, MIC, read-out: Minimal Inhibitory Concentrations (μM) S. aureus USA 300
[8] = read-out: Minimal Inhibitory Concentrations (μM) MRSA NRS70, MIC
[9] = USA300, read-out: Minimal Inhibitory Concentrations (μM) S. aureus USA 300, MIC
[10] = plasma binding, % Bound, mouse plasma

T1 sequence (Q2G036 whole entry): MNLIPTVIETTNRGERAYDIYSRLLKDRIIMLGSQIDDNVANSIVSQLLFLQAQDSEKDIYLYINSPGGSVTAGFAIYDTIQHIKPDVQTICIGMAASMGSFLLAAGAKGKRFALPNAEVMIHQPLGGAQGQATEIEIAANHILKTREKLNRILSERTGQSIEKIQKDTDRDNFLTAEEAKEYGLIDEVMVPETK

SMILES	EC50 [1] [nM]	Minimal Inhibitory Concentrations (μM) S. aureus ΔClpP [2] [µM]	MIC [3, 6] [µM]	MIC [4, 7] [µM]	Mouse ([5]; mouse, 4 h, 10 μM, pH 7.4) [%]	MIC [3, 8] [µM]	MIC [4, 9] [µM]	Mouse [5, 10] [%]
CCc1ccc(NC(=O)N[C@@H](Cc2cccc(C)c2)C(=O)N[C@@H]2C(=O)N3C[C@H](O)C[C@H]3C(=O)N3CCCC[C@H]3C(=O)N[C@@H](C)C(=O)N3C[C@H](C)C[C@H]3C(=O)O[C@H]2C)cc1 [Compound 25, (S)-2-(3-(4-ETHYLPHENYL)UREIDO)-N-((2R,6S,8AS,14AS,16R,20S,21S,23AS)-16-HYDROXY-2,6,21-TRIMETHYL-5,8,14,19,23-PENTAOXOOCTADECAHYDRO-1H,5H,14H,19H-PYRIDO[2,1-I]DIPYRROLO[2,1-C:2′,1′-L][1]OXA[4,7,10,13]TETRAAZACYCLOHEXADECIN-20-YL)-3-(M-TOLYL)PROPANAMIDE] ({NH(4-Et-phenyl)-CO}-[Phe(3-Me)][aThr][Hyp][Pip]A[Pro(4R-Me)]; ester 2-C)	410 ± 20	>20	0.156 (≈ 0.127 µg/mL)	0.313 (≈ 0.255 µg/mL)	99.5 ± 0.11			
C[C@@H]1C[C@H]2C(=O)O[C@@H](C)[C@H](NC(=O)[C@H](Cc3cccc(Cl)c3)NC(=O)Nc3ccc(Cl)cc3F)C(=O)N3CCC[C@H]3C(=O)N3CCN(C)C[C@H]3C(=O)N[C@@H](C)C(=O)N2C1 [Compound 33] ({NH(4-Cl-2-F-phenyl)-CO}-[Phe(3-Cl)][aThr]P[Piperazine(2S-CO,4-Me)]A[Pro(4R-Me)]; ester 2-C)	200 ± 200	>20	0.039 (≈ 0.0335 µg/mL)	0.078 (≈ 0.0671 µg/mL)	99.5 ± 9.5			
Cc1cccc(C[C@H](NC(=O)Nc2ccc3c(c2)OCO3)C(=O)N[C@H]2COC(=O)[C@@H]3C[C@@H](C)CN3C(=O)[C@H](C)NC(=O)[C@@H]3CN(C)CCN3C(=O)[C@@H]3CCCN3C2=O)c1 [Compound 17, (S)-2-(3-(BENZO[D][1,3]DIOXOL-5-YL)UREIDO)-3-(M-TOLYL)-N-((6AS,12S,15AS,17R,21S,23AS)-2,17,21-TRIMETHYL-6,11,15,20,23-PENTAOXOOCTADECAHYDRO-2H,6H,11H,15H-PYRAZINO[2,1-I]DIPYRROLO[2,1-C:2′,1′-L][1]OXA[4,7,10,13]TETRAAZACYCLOHEXADECIN-12-YL)PROPANAMIDE] ({NH(1,3-benzodioxol-5-yl)-CO}-[Phe(3-Me)]SP[Piperazine(2S-CO,4-Me)]A[Pro(4R-Me)]; ester 2-C)	2640 ± 100	>20	5 (≈ 4.08 µg/mL)	10 (≈ 8.17 µg/mL)	88.4 ± 1.6			
Cc1ccc(NC(=O)N[C@@H](Cc2cccc(C)c2)C(=O)N[C@H]2COC(=O)[C@@H]3C[C@@H](C)CN3C(=O)[C@H](C)NC(=O)[C@@H]3CN(C)CCN3C(=O)[C@@H]3CCCN3C2=O)cc1 [Compound 15, (S)-3-(M-TOLYL)-2-(3-(P-TOLYL)UREIDO)-N-((6AS,12S,15AS,17R,21S,23AS)-2,17,21-TRIMETHYL-6,11,15,20,23-PENTAOXOOCTADECAHYDRO-2H,6H,11H,15H-PYRAZINO[2,1-I]DIPYRROLO[2,1-C:2′,1′-L][1]OXA[4,7,10,13]TETRAAZACYCLOHEXADECIN-12-YL)PROPANAMIDE] ({NH(4-Me-phenyl)-CO}-[Phe(3-Me)]SP[Piperazine(2S-CO,4-Me)]A[Pro(4R-Me)]; ester 2-C)	1580 ± 200	>20				2.5 (≈ 1.97 µg/mL)	5 (≈ 3.93 µg/mL)	77.0 ± 6.1
Cc1ccc(NC(=O)N[C@@H](Cc2cc(C)cc(C)c2)C(=O)N[C@@H]2C(=O)N3CCC[C@H]3C(=O)N3CCCC[C@H]3C(=O)N[C@@H](C)C(=O)N3C[C@H](C)C[C@H]3C(=O)O[C@H]2C)cc1 [Compound 2, (S)-3-(3,5-DIMETHYLPHENYL)-2-(3-(P-TOLYL)UREIDO)-N-((2R,6S,8AS,14AS,20S,21S,23AS)-2,6,21-TRIMETHYL-5,8,14,19,23-PENTAOXOOCTADECAHYDRO-1H,5H,14H,19H-PYRIDO[2,1-I]DIPYRROLO[2,1-C:2′,1′-L][1]OXA[4,7,10,13]TETRAAZACYCLOHEXADECIN-20-YL)PROPANAMIDE] ({NH(4-Me-phenyl)-CO}-[Phe(3,5-Me2)][aThr]P[Pip]A[Pro(4R-Me)]; ester 2-C)	870 ± 30	200				0.313 (≈ 0.25 µg/mL)	0.781 (≈ 0.625 µg/mL)	99.2
CCc1ccc(NC(=O)N[C@@H](Cc2cccc(C)c2)C(=O)N[C@@H]2C(=O)N3C[C@H](O)C[C@H]3C(=O)N3CCOC[C@H]3C(=O)N[C@@H](C)C(=O)N3C[C@H](C)C[C@H]3C(=O)O[C@H]2C)cc1 [Compound 24, (S)-2-(3-(4-ETHYLPHENYL)UREIDO)-N-((6AS,8R,12S,13S,15AS,17R,21S,23AS)-8-HYDROXY-13,17,21-TRIMETHYL-6,11,15,20,23-PENTAOXOOCTADECAHYDRO-6H,11H,15H-[1,4]OXAZINO[3,4-I]DIPYRROLO[2,1-C:2′,1′-L][1]OXA[4,7,10,13]TETRAAZACYCLOHEXADECIN-12-YL)-3-(M-TOLYL)PROPANAMIDE] ({NH(4-Et-phenyl)-CO}-[Phe(3-Me)][aThr][Hyp][Morpholine(3S-CO)]A[Pro(4R-Me)]; ester 2-C)	130 ± 40	>20	0.156 (≈ 0.128 µg/mL)	0.313 (≈ 0.256 µg/mL)	98.2 ± 0.1			
Cc1cccc(C[C@H](NC(=O)Nc2ccc(Cl)cc2F)C(=O)N[C@@H]2C(=O)N3C[C@H](O)C[C@H]3C(=O)N3CCN(C)C[C@H]3C(=O)N[C@@H](C)C(=O)N3C[C@H](C)C[C@H]3C(=O)O[C@H]2C)c1 [Compound 31, (S)-2-(3-(4-CHLORO-2-FLUOROPHENYL)UREIDO)-N-((6AS,8R,12S,13S,15AS,17R,21S,23AS)-8-HYDROXY-2,13,17,21-TETRAMETHYL-6,11,15,20,23-PENTAOXOOCTADECAHYDRO-2H,6H,11H,15H-PYRAZINO[2,1-I]DIPYRROLO[2,1-C:2′,1′-L][1]OXA[4,7,10,13]TETRAAZACYCLOHEXADECIN-12-YL)-3-(M-TOLYL)PROPANAMIDE] ({NH(4-Cl-2-F-phenyl)-CO}-[Phe(3-Me)][aThr][Hyp][Piperazine(2S-CO,4-Me)]A[Pro(4R-Me)]; ester 2-C)	180 ± 180	>20	< 0.02	0.078 (≈ 0.0667 µg/mL)	96.9 ± 6.9			
C[C@@H]1C[C@H]2C(=O)OC[C@H](NC(=O)[C@H](Cc3cccc(C(F)(F)F)c3)NC(=O)Nc3ccc(Cl)cc3F)C(=O)N3CCC[C@H]3C(=O)N3CCN(C)C[C@H]3C(=O)N[C@@H](C)C(=O)N2C1 [Compound 18, (S)-2-(3-(4-CHLORO-2-FLUOROPHENYL)UREIDO)-3-(3-(TRIFLUOROMETHYL)PHENYL)-N-((6AS,12S,15AS,17R,21S,23AS)-2,17,21-TRIMETHYL-6,11,15,20,23-PENTAOXOOCTADECAHYDRO-2H,6H,11H,15H-PYRAZINO[2,1-I]DIPYRROLO[2,1-C:2′,1′-L][1]OXA[4,7,10,13]TETRAAZACYCLOHEXADECIN-12-YL)PROPANAMIDE] ({NH(4-Cl-2-F-phenyl)-CO}-[Phe(3-CF3)]SP[Piperazine(2S-CO,4-Me)]A[Pro(4R-Me)]; ester 2-C)	1750 ± 100	>20	5 (≈ 4.4 µg/mL)	10 (≈ 8.79 µg/mL)	99.2 ± 0.1			
